Values joined by “and” are separate entries in the source; they are usually repeats but may differ in a detail not shown here. Equal values may be shown once. Read-outs that look alike come from different tables or passages of the source. Values belong to the molecule of their own block, whether it stands above or below them. *1 amine or outer side, *2 acyl side, *3 side chain or, on linkers, in order; H or OH if unused. Where a SMILES comes first, the peptide text is derived from it. Side-chain parts run from the residue outwards. [ ]: non-standard residue; d: D form. The star is where a group is joined. C20 diacid = O=C(O)CCCCCCCCCCCCCCCCCCC(=O)*; γGlu = O=C(O)[C@H](CCC(=O)[*:2])N[*:1]; NMeI = CC[C@H](C)[C@H](NC)C(=O)O; αMeL = CC(C)C[C@](C)(N)C(=O)O; AEEA = NCCOCCOCC(=O)O
Legend:
[1] = Pharmacokinetics in Yucatan mini-pigs, single subcutaneous or intravenous dose; assay type: in vivo
Method: Plasma concentrations of compounds were determined by LC/MS methods. For each assay, the compound and an internal standard (IS), were extracted from 100% mouse, rat, pig, or monkey plasma (70 μL) using Isopropanol-Methanol. Two distinct layers were formed upon centrifugation with the compound and the IS located in the supernatant layer. An aliquot of the supernatant (150 μL) was transferred to a Waters Sirocco Protein Precipitation Plate. The supernatant was eluted using a positive pressure manifold. The supernatant was mixed with 100-2 Water-Formic acid (400 μL) in a pretreated Sep-Pak tC18 SPE plate and eluted to waste. The peptide and IS were eluted with Acetonitrile-Formic acid (100 μL) in 2 steps (50 μL each step). The elution (40 μL) from SPE plate was mixed with diluent solution (1.875 μL 5× invitrosol and 3.125 μL 1% formic acid in water, 80 μL). A final sample (10 μl) was loaded onto a Xselect CSH C18 IS column (3.5 μm 2.1×20 mm). The column effluent was directed into a Thermo Fisher Scientific Orbitrap (Exploris 240) mass spectrometer for detection and quantitation.
Male Yucatan mini-pigs were administered a single subcutaneous dose or intravenous dose (19 or 99 nmol/kg) of compound in 40 mM Tris-HCl 5% D-mannitol (pH 8) at a volume of 0.01 or 0.05 mL/kg. Blood was collected from each animal at 0.083 (IV only), 0.5, 3, 6, 24, 48, 72, 96, 168, 240, 336, 408, and 504 hours postdose for pharmacokinetic characterization.

[2] = test system: MHC-II presented peptides on human dendritic cells; experiment: MAPPS assay (MHC-Associated Peptide Proteomics); assay type: cell-based; details: for peptides displayed on MHC-II complexes: human dendritic cells from normal donors; for immunogenicity compared with SEQ ID NO:54: in the MAPPs assay and/or the T cell proliferation assay
Method: MAPPS profiles the MHC-II presented peptides on human dendritic cells treated with tested molecules. CD14+ cells, isolated from the PBMCs of normal human donors, were cultured and differentiated into immature DCs by incubation with IL-4 and GM-CSF. On day 4, culture media was replaced with fresh media containing tested molecules. On day 5, LPS was added to transform the cells into mature DCs. On day 6, cells were lysed in RIPA buffer with protease inhibitors. Immunoprecipitation of MHC-II complexes were performed using biotinylated anti-MHC-II antibody coupled to streptavidin beads. The bound complex was eluted and filtered. The isolated MHC-II peptides were analyzed by a mass spectrometer. Peptide identifications were generated by an internal proteomics pipeline using search algorithms with no enzyme and a bovine/human database with test sequences appended to the database. A KNIME workflow was used to process the identification files from the samples. Peptides identified from the test articles were aligned against the parent sequence of the test molecule. The output was used to determine the percentage of donors displaying MHC-II peptides from regions of the test molecule. Polypeptides comprising SEQ ID NOs:54, 49, 50, 29, 41, 45, 1, 22, 25 were tested in the MAPPs assay. […] Depending on the donors, up to three major clusters were observed, each slightly shifted from the others, altogether spanning residues 1-33.

[3] = male Yucatan pigs, single subcutaneous dose 99 nmol/kg, individual animal
[4] = male, Yucatan mini-pig, minipig, plasma, iv, 99 nmol/kg, single intravenous dose 99 nmol/kg, mean
[5] = single intravenous dose 99 nmol/kg, male Yucatan pigs, individual animal
[6] = donors displaying MHC-II peptides / donors tested
[7] = percentage of donors displaying MHC-II peptides

AUC0-inf ([1]; Yucatan mini-pig, minipig, plasma, sc, male Yucatan pigs, single subcutaneous dose 99 nmol/kg, Mean, read-out: AUC0-inf): 76.4 µM·h | Cmax ([1]; Yucatan mini-pig, minipig, plasma, sc, male Yucatan pigs, single subcutaneous dose 99 nmol/kg, Mean, read-out: Cmax): 259 nM | T1/2 [1, 3]: 292 h and 185 h | Tmax [1, 3]: 168 h | clearance ([1]; male, Yucatan mini-pig, minipig, plasma, iv, 99 nmol/kg, single intravenous dose 99 nmol/kg, individual animal): 7.7 mL/day/kg | clearance [1, 4]: 8.54 mL/day/kg | half-life [1, 4]: 166 h | half-life ([1]; male, Yucatan mini-pig, minipig, plasma, sc, 99 nmol/kg, single subcutaneous dose 99 nmol/kg, Mean): 214 h | CL/F ([1]; male, Yucatan mini-pig, minipig, plasma, sc, 99 nmol/kg, single subcutaneous dose 99 nmol/kg, Mean, read-out: CL/F (converted)): 53.3 mL/day/kg | Tmax ([1]; male, Yucatan mini-pig, minipig, plasma, sc, 99 nmol/kg, single subcutaneous dose 99 nmol/kg, Mean, read-out: Tmax): 72 h | half-life ([1]; male, Yucatan mini-pig, minipig, plasma, sc, 99 nmol/kg, single subcutaneous dose 99 nmol/kg, individual animal): 166 h | AUC0-inf ([1]; minipig, plasma, single intravenous dose 99 nmol/kg, male Yucatan pigs, mean, read-out: AUC0-inf): 285 µM·h | C0 ([1]; minipig, plasma, single intravenous dose 99 nmol/kg, male Yucatan pigs, mean, read-out: C0): 2490 nM | CL [1, 5]: 10.8 mL/day/kg and 7.18 mL/day/kg | T1/2 [1, 5]: 109 h and 126 h and 263 h | MAPPS Assay >10 donors with diverse MHC [2, 6]: 8/30 | MAPPS Assay >10 donors with diverse MHC [2, 7]: 27%
Compound: CC[C@H](C)[C@H](NC(C)=O)C(=O)N[C@H](C(=O)N[C@H](C(=O)N[C@@H](CO)C(=O)N[C@@](C)(CC(C)C)C(=O)N[C@@H](CC(=O)O)C(=O)N[C@@H](C(=O)N1CCC[C@H]1C(=O)N[C@H](C(=O)NCC(=O)N[C@@](C)(CC(C)C)C(=O)N[C@@H](CC(C)C)C(=O)N[C@@H](CCC(N)=O)C(=O)N[C@H](C(=O)N[C@@H](CCCCN)C(=O)N[C@@H](CC(C)C)C(=O)N[C@@H](CCC(=O)O)C(=O)N[C@@H](CCC(N)=O)C(=O)N[C@@H](CCC(=O)O)C(=O)N[C@@H](CCCNC(=N)N)C(=O)N[C@@H](C)C(=O)N[C@@H](CCC(=O)O)C(=O)N[C@@H](CCCCN)C(=O)N[C@@H](C)C(=O)N[C@@H](CCCNC(=N)N)C(=O)N[C@@H](CCC(N)=O)C(=O)N[C@@H](CCC(N)=O)C(=O)N[C@@H](C)C(=O)N[C@@H](CCCCNC(=O)COCCOCCNC(=O)COCCOCCNC(=O)CC[C@H](NC(=O)CCCCCCCCCCCCCCCCCCC(=O)O)C(=O)O)C(=O)N[C@@H](CCC(=O)O)C(=O)N[C@@H](CC(N)=O)C(=O)N[C@H](C(=O)N[C@@H](CCC(=O)O)C(=O)N[C@H](C(=O)N[C@@H](CC(C)C)C(=O)N[C@@H](C)C(=O)N[C@@H](CCC(N)=O)C(=O)N[C@H](C(N)=O)C(C)C)[C@@H](C)CC)[C@@H](C)O)[C@@H](C)CC)[C@@H](C)O)C(C)C)[C@@H](C)O)C(C)C [SEQ ID NO: 29, Ac-IVTS αMeL D (D-Val) PTG αMeL LQIKLEQERAEKARQ QAK((2-[2-(2-Amino-ethoxy)-ethoxy]-acetyl)2-γE-CO-(CH2)18-CO2H)ENTEILAQV-NH2] (Ac-IVTS[αMeL]D[dV]PTG[αMeL]LQIKLEQERAEKARQQAK([AEEA-AEEA-γGlu-C20 diacid])ENTEILAQV-NH2)
AUC0-inf [1, 3]: 128 µM·h and 67.5 µM·h and 33.8 µM·h | CL/F [1, 3]: 24.7 mL/day/kg and 49.4 mL/day/kg and 85.4 mL/day/kg | Cmax [1, 3]: 497 nM and 201 nM and 79.6 nM | AUC0-inf [1, 5]: 307 µM·h and 220 µM·h and 329 µM·h | C0 [1, 5]: 2530 nM and 2560 nM and 2380 nM | peptides displayed on MHC-II complexes [2]: at least one peptide cluster on MHC-II complexes in a subset of donors | immunogenicity compared with SEQ ID NO:54 [2]: substantial improvements in immunogenicity over a compound comprising SEQ ID NO:54

MAPPS Assay >10 donors with diverse MHC [2, 6]: 3/10 | MAPPS Assay >10 donors with diverse MHC [2, 7]: 30%
Compound: CC[C@H](C)[C@H](NC)C(=O)N[C@H](C(=O)N[C@H](C(=O)N[C@@H](CO)C(=O)N[C@@H](CC(C)C)C(=O)N[C@@H](CC(=O)O)C(=O)N[C@H](C(=O)N1CCC[C@H]1C(=O)N[C@H](C(=O)NCC(=O)N[C@@](C)(CC(C)C)C(=O)N[C@@H](CC(C)C)C(=O)N[C@@H](CCC(N)=O)C(=O)N[C@@H](CCCCN)C(=O)N[C@@H](CC(C)C)C(=O)N[C@@H](CC(C)C)C(=O)N[C@@H](CCC(=O)O)C(=O)N[C@@H](CCC(N)=O)C(=O)N[C@@H](CCC(=O)O)C(=O)N[C@@H](CCCNC(=N)N)C(=O)N[C@@H](C)C(=O)N[C@@H](CCC(=O)O)C(=O)N[C@@H](CCCCN)C(=O)N[C@@H](C)C(=O)N[C@@H](CCCNC(=N)N)C(=O)N[C@@H](CCC(N)=O)C(=O)N[C@@H](CCC(N)=O)C(=O)N[C@@H](C)C(=O)N[C@@H](CCCCNC(=O)COCCOCCNC(=O)COCCOCCNC(=O)CC[C@H](NC(=O)CCCCCCCCCCCCCCCCCCC(=O)O)C(=O)O)C(=O)N[C@@H](CCC(=O)O)C(=O)N[C@@H](C)C(=O)N[C@@H](C)C(=O)N[C@@H](CCC(=O)O)C(=O)N[C@H](C(=O)N[C@@H](CC(C)C)C(=O)N[C@@H](C)C(=O)N[C@@H](CCC(N)=O)C(=O)N[C@H](C(N)=O)C(C)C)[C@@H](C)CC)[C@@H](C)CC)C(C)C)[C@@H](C)O)C(C)C [SEQ ID NO: 50, (NMeI) VTSLDVPIG αMeL LQKLLEQERAEKARQQAK((2-[2-(2-Amino-ethoxy)-ethoxy]-acetyl)2-γE-CO-(CH2)18-CO2H)EAAEILAQV-NH2] (H-[NMeI]VTSLDVPIG[αMeL]LQKLLEQERAEKARQQAK([AEEA-AEEA-γGlu-C20 diacid])EAAEILAQV-NH2)
peptides displayed on MHC-II complexes [2]: at least one peptide cluster on MHC-II complexes in a subset of donors | immunogenicity compared with SEQ ID NO:54 [2]: substantial improvements in immunogenicity over a compound comprising SEQ ID NO:54

MAPPS Assay >10 donors with diverse MHC [2, 6]: 7/10 | MAPPS Assay >10 donors with diverse MHC [2, 7]: 70%
Compound: CC[C@H](C)[C@H](NC)C(=O)N[C@H](C(=O)N[C@@H](CC(C)C)C(=O)N[C@@H](CO)C(=O)N[C@@H](CC(C)C)C(=O)N[C@@H](CC(=O)O)C(=O)N[C@H](C(=O)N1CCC[C@H]1C(=O)N[C@H](C(=O)NCC(=O)N[C@@H](CC(C)C)C(=O)N[C@@H](CC(C)C)C(=O)N[C@@H](CCC(N)=O)C(=O)N[C@H](C(=O)N[C@@H](CC(C)C)C(=O)N[C@@H](CC(C)C)C(=O)N[C@@H](CCC(=O)O)C(=O)N[C@@H](CCC(N)=O)C(=O)N[C@@H](CCC(=O)O)C(=O)N[C@@H](CCCCN)C(=O)N[C@@H](CCC(N)=O)C(=O)N[C@@H](CCC(=O)O)C(=O)N[C@@H](CCCCN)C(=O)N[C@@H](CCC(=O)O)C(=O)N[C@@H](CCCCN)C(=O)N[C@@H](CCC(N)=O)C(=O)N[C@@H](CCC(N)=O)C(=O)N[C@@H](C)C(=O)N[C@@H](CCCCNC(=O)COCCOCCNC(=O)COCCOCCNC(=O)CC[C@H](NC(=O)CC[C@H](NC(=O)CCCCCCCCCCCCCCCCCCC(=O)O)C(=O)O)C(=O)O)C(=O)N[C@H](C(=O)N[C@@H](CC(N)=O)C(=O)N[C@@H](C)C(=O)N[C@@H](CCC(N)=O)C(=O)N[C@H](C(=O)N[C@@H](CC(C)C)C(=O)N[C@@H](C)C(=O)N[C@@H](CCC(N)=O)C(=O)N[C@H](C(N)=O)C(C)C)[C@@H](C)CC)[C@@H](C)O)[C@@H](C)CC)[C@@H](C)CC)C(C)C)C(C)C [SEQ ID NO: 54] (H-[NMeI]VLSLDVPIGLLQILLEQEKQEKEKQQAK([AEEA-AEEA-γGlu-γGlu-C20 diacid])TNAQILAQV-NH2)
peptides displayed on MHC-II complexes [2]: at least one peptide cluster on MHC-II complexes in a subset of donors
